Measured values: US20120064056A1, “DICHLORACETATE IN COMBINATION WITH CLINICALLY HIGH LEVELS OF CARDIOPROTECTIVE OR HEMODYNAMIC DRUGS” (THE GOVERNORS OF THE UNIVERSITY OF ALBERTA TEC Edmonton, priority 2002, published 2012)

How the values were obtained:
[1] = system: isolated rat hearts; test: Isolated working rat heart, aerobic perfusion: glycolysis and glucose oxidation; design: glycolytic rates (glycolysis) / glucose oxidation rates: unit not given here; conditions: normal hearts, aerobic, DCA 2 mM, digoxin 3 nM, diltiazem 0.8 μM, dobutamine 1 μM, metoprolol 1 μM
Description: Rat hearts were cannulated for isolated working heart perfusions as described in “An imbalance between glycolysis and glucose oxidation is a possible explanation for the detrimental effects of high levels of fatty acids during aerobic reperfusion of ischemic hearts.”, (J Pharmacol Exp Ther. 264:135 (1993); herein incorporated by reference. In brief, male Sprague-Dawley rats (0.3-0.35 kg) were anesthetized with pentobarbital sodium (60 mg/kg IP) and hearts were quickly excised, the aorta was cannulated and a retrograde perfusion at 37° C. was initiated at a hydrostatic pressure of 60 mm Hg. Hearts were trimmed of excess tissue, and the pulmonary artery and the opening to the left atrium were then cannulated. After 15 min of Langendorff perfusion, hearts were switched to the working mode by clamping the aortic inflow line from the Langendorff reservoir and opening the left atrial inflow line. The perfusate was delivered from an oxygenator into the left atrium at a constant preload pressure of 11 mm Hg. Perfusate was ejected from spontaneously beating hearts into a compliance chamber (containing 1 ml of air) and into the aortic outflow line. The afterload was set at a hydrostatic pressure of 80 mm Hg. All working hearts were perfused with Krebs'-Henseleit solution containing calcium 2.5 mmol/L, glucose 5.5 mmol/L, 3% bovine serum albumin (Fraction V, Boehringer Mannheim), and with 1.2 mmol/L palmitate. Palmitate was bound to the albumin as described previously (Saddik M., et al. J Biol. Chem. 267:3825-3831 (1992)). The perfusate was recirculated, and pH was adjusted to 7.4 by bubbling with a mixture containing 95% O2 and 5% CO2. For the aerobic model hearts, all tested compounds were introduced into the heart 5 minutes into the working mode following Langendorff Perfusion.
Glycolysis and glucose oxidation were measured simultaneously by perfusing hearts with [5-^3H/U-^14C] glucose (Liu H., et al. Am J Physiol. 270:H72-H80 (1996); Taegtmeyer Het al. Am J Cardiol. 80:3A-10A (1997)). The total myocardial ^3H2O production and ^14CO2 production were determined at 10 minute intervals for the entirety of the aerobic period, 60 minutes for normal hearts and 30 minutes for the global ischemia and low flow demand ischemia models. In the global ischemia model, the total myocardial ^3H2O and ^14CO2 production were determined at 20 minute intervals for the 60 minute reperfusion period. In the low flow demand ischemia model, the total myocardial ^3H2O and ^14CO2 production were determined at 10 minute intervals for the 30 minute reperfusion period. Glucose oxidation rates were determined by quantitative measurement of ^14CO2 production as described previously (Barbour R. L., et al. Biochemistr. 1923:6503-6062 (1984)).

[2] = system: isolated rat hearts subjected to global ischemia; test: Isolated working rat heart, global ischemia and reperfusion: glycolysis and glucose oxidation; conditions: digoxin 3 nM, metoprolol 1 μM
Description: Hearts were trimmed of excess tissue, and the pulmonary artery and the opening to the left atrium were then cannulated. After 15 min of Langendorff perfusion, hearts were switched to the working mode by clamping the aortic inflow line from the Langendorff reservoir and opening the left atrial inflow line. The perfusate was delivered from an oxygenator into the left atrium at a constant preload pressure of 11 mm Hg. […] The afterload was set at a hydrostatic pressure of 80 mm Hg. […] Palmitate was bound to the albumin as described previously ([…]., et al. J Biol. Chem. 267:3825-3831 (1992)). […] For the aerobic model hearts, all tested compounds were introduced into the heart 5 minutes into the working mode following Langendorff Perfusion. […] All tested compounds were introduced into the perfusate five minutes prior to reperfusion. […] Am J Physiol. 270:[…]. Am J Cardiol. 80:3A-10A (1997)). […] In the global ischemia model, the total myocardial ^3H2O and ^14CO2 production were determined at 20 minute intervals for the 60 minute reperfusion period. […] L., et al. Biochemistr. 1923:6503-6062 (1984)).

[3] = system: isolated rat hearts subjected to low flow demand ischemia; test: Isolated working rat heart, low flow demand ischemia: cardiac function and efficiency; conditions: for Aortic Outflow / Cardiac Output / Coronary Flow / HR × PSP / Heart Rate / Peak Systolic Pressure: DCA 2 mM, diltiazem 0.8 μM, metoprolol 1 μM
Description: Hearts were trimmed of excess tissue, and the pulmonary artery and the opening to the left atrium were then cannulated. After 15 min of Langendorff perfusion, hearts were switched to the working mode by clamping the aortic inflow line from the Langendorff reservoir and opening the left atrial inflow line. The perfusate was delivered from an oxygenator into the left atrium at a constant preload pressure of 11 mm Hg. […] The afterload was set at a hydrostatic pressure of 80 mm Hg. […] Palmitate was bound to the albumin as described previously ([…]., et al. J Biol. Chem. 267:3825-3831 (1992)). […] For the aerobic model hearts, all tested compounds were introduced into the heart 5 minutes into the working mode following Langendorff Perfusion. Spontaneously beating hearts were used in all perfusions. Heart rate and aortic pressure were measured with a Biopac Systems Inc. blood pressure transducer connected to the aortic outflow line. Cardiac output and aortic flow were measured with Transonic […] ultrasonic flow probes in the preload and afterload lines, respectively. Coronary flow was calculated as the difference between cardiac output and aortic flow. […] Cardiac work was calculated as the product of systolic pressure and cardiac output. Cardiac efficiency was defined as a ratio of cardiac work to MVO2. […] All tested compounds were introduced into the perfusate five minutes into initiation of aerobic perfusion.

[4] = low flow ischemia: aerobic period
[5] = low flow ischemia: ischemic period

COCCc1ccc(OCC(O)CNC(C)C)cc1 (stereo not shown) [Metoprolol, metoprolol]
glucose oxidation rates ([1]; FIG. 1, 3, 5, 7, control 361±43): 651±222
glycolytic rates (glycolysis) ([1]; FIG. 2, 4, 6, 8, control 3.430±0.604): 4.530±0.876
glycolytic rates as compared to control, in words ([2]; FIG. 10, FIG. 16, DCA 2 mM): neither DCA, metoprolol or metoprolol with DCA altered glycolytic rates
glucose oxidation rates, in words ([2]; reperfusion period, FIG. 9, FIG. 15, DCA 2 mM): no effect
cardiac work, in words ([3]; low flow demand ischemia, FIG. 24, FIG. 30): no significant changes
oxygen consumption, in words ([3]; low flow demand ischemia, FIG. 25, FIG. 31): no significant changes
peak systolic pressure, effect in words ([3]; low flow demand ischemia, Table 1): no significant increase
heart rate, effect in words ([3]; low flow demand ischemia, Table 1, compared to control): no significant increase
coronary flow (coronary outflow), effect in words ([3]; low flow demand ischemia, Table 2): no significant increase
Aortic Outflow [3, 4]: 25 ± 2 mL/min
Cardiac Output [3, 4]: 47 ± 2 mL/min
Coronary Flow [3, 4]: 22 ± 1 mL/min
HR × PSP [3, 4]: 30 ± 2 beats · min^−1 · mmHg · 10^−2
Heart Rate [3, 4]: 216 ± 10 beats · min^−1
Peak Systolic Pressure [3, 4]: 141 ± 7 mmHg
Aortic Outflow [3, 5]: 17 ± 3 mL/min
Cardiac Output [3, 5]: 31 ± 4 mL/min
Coronary Flow [3, 5]: 14 ± 1 mL/min
HR × PSP [3, 5]: 30 ± 2 beats · min^−1 · mmHg · 10^−2
Heart Rate [3, 5]: 216 ± 10 beats · min^−1
Peak Systolic Pressure [3, 5]: 141 ± 7 mmHg
cardiac function, in words ([3]; low-flow ischemic period, FIG. 23, FIG. 29): no significant changes
